Holding throughout (assay): Serum MIC, broth micro-dilution
Format in all cases: cell-based
For orientation: In broth dilution the organism is exposed to a series of concentrations in liquid medium.

In assay [1] the test system is Klebsiella pneumoniae ATCC 700603. The settings on record: Klebsiella pneumoniae. In a few lines:
(§1)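 MIC read after 22 h at 35° C by CLSI broth micro-dilution, with medium containing 50% v/v mouse serum in cation-adjusted Mueller Hinton II broth. Ten 2-fold compound concentrations were tested, starting at 64, 4, 0.5 or 0.13 μg/mL.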

The subject of assay [2] is Acinetobacter baumannii ATCC 17978. The settings on record: Acinetobacter baumannii. In a few lines:
as §1

Assay [3] deals with Escherichia coli strain ATCC 25922. The settings on record: Escherichia coli. In short, it runs like this: as §1
Assay [4] has as its system Pseudomonas aeruginosa PA01. The settings on record: Pseudomonas aeruginosa. In a few lines: as §1
The mark [5] stands for this setting: ATCC700603, 50% v/v mouse serum in Mueller Hinton II cation adjusted Broth, 35° C., 22 hours, Table 4, read-out: K pneumoniae 700603 Serum MIC.
[6] abbreviates: ATCC17978, 50% v/v mouse serum in Mueller Hinton II cation adjusted Broth, 35° C., 22 hours, Table 4, read-out: A. baumanii 17978 Serum MIC.
The mark [7] stands for this setting: ATCC17978, 50% v/v mouse serum in Mueller Hinton II cation adjusted Broth, 35° C., 22 hours, Table 5, read-out: Acinetobacter baumanii 17978 Serum MIC.
Setting [8] is: ATCC25922, 50% v/v mouse serum in Mueller Hinton II cation adjusted Broth, 35° C., 22 hours, Table 4, read-out: E. coli 25922 Serum MIC.
The mark [9] stands for this setting: PA01, 50% v/v mouse serum in Mueller Hinton II cation adjusted Broth, 35° C., 22 hours, Table 4, read-out: P. aeruginosa 01 Serum MIC.
Setting [10] is: ATCC700603, 50% v/v mouse serum, compounds of Table 1, Table 7, read-out: K. pneumoniae 700603 Serum MIC.
The mark [11] stands for this setting: ATCC17978, 50% v/v mouse serum, compounds of Table 1, Table 7, read-out: A. baumanii 17978 Serum MIC.
[12] abbreviates: ATCC25922, 50% v/v mouse serum, compounds of Table 1, Table 7, read-out: E. coli 25922 Serum MIC.
Where [13] appears, read: PA01, 50% v/v mouse serum, compounds of Table 1, Table 7, read-out: P. aeruginosa 01 Serum MIC.

The source of these data is US11208387B2, “Macrocyclic broad spectrum antibiotics” (Genentech, Inc., priority 2019, dated 2021).

Molecules are shown by their SMILES. Values after ≈ are worked out from the molar mass of the structure shown. Where two headings read alike, the source gives them in different places.

The MIC is the lowest concentration found to suppress growth.

For `C[C@@H]1NC(=O)[C@@H](N(C)C(=O)[C@H](CNS(N)(=O)=O)NC(=O)c2ncc(-c3ccc(C(C)(C)C)cc3)nc2N)c2cc(OC[C@H](O)CN)c(O)c(c2)-c2cc(ccc2OC[C@H](O)CN)C[C@@H](C(=O)O)NC1=O` [Example 11, (8S,11S,14S)-18-hydroxy-11-methyl-14-[methyl-[(2S)-2-[[3-amino-5-(4-tert-butylphenyl)pyrazine-2-carbonyl]amino]-3-(sulfamoylamino)-propanoyl]amino]-10,13-dioxo-3,17-bis[(2R)-3-amino-2-hydroxy-propoxy]-9,12-diazatricyclo-[13.3.1.12,6]icosa-1(18),2(20),3,5,15(19), 16-hexaene-8-carboxylic acid], the MIC in assay [1] (ATCC700603, 22 h, read-out: K pneumoniae 700603 Serum MIC) turned out to be 4 µM (≈ 3.98 µg/mL); in assay [2] (ATCC17978, 22 h, read-out: A. baumanii 17978 Serum MIC), 16 µM (≈ 15.9 µg/mL); in assay [2] (ATCC17978, 22 h, read-out: Acinetobacter baumanii 17978 Serum MIC) it was 16 µM (≈ 15.9 µg/mL); in assay [3] (ATCC25922, 22 h, read-out: E. coli 25922 Serum MIC), 4 µM (≈ 3.98 µg/mL); in assay [4] (PA01, 22 h, read-out: P. aeruginosa 01 Serum MIC), 64 µM (≈ 63.6 µg/mL).

As for `Cc1nc(-c2ccc(C3(C)CC3)cc2)ncc1C(=O)N[C@@H](CCN)C(=O)N(C)[C@@H]1C(=O)N[C@@H](C)C(=O)N[C@H](C(=O)O)Cc2ccc(OC[C@@H](O)CN)c(c2)-c2cc1cc(OC[C@@H](O)CN)c2O` [Example 73, (8S,11S,14S)-3,17-bis[(2S)-3-amino-2-hydroxy-propoxy]-14-[[(2S)-4-amino-2-[[4-methyl-2-[4-(1-methylcyclopropyl)-phenyl]pyrimidine-5-carbonyl]amino]-butanoyl]-methyl-amino]-18-hydroxy-11-methyl-10,13-dioxo-9,12-diazatri-cyclo-[13.3.1.12,6]icosa-1(19),2(20),3,5,15,17-hexaene-8-carboxylic acid], the minimal inhibitory concentration (MIC) worked out at 0.25 µM (≈ 0.232 µg/mL) in assay [1] (setting [5]); 16 µM (≈ 14.8 µg/mL) in assay [2] (setting [6]); 16 µM (≈ 14.8 µg/mL) in assay [2] (setting [7]); 0.38 µM (≈ 0.352 µg/mL) in assay [3] (setting [8]); 64 µM (≈ 59.3 µg/mL) in assay [4] (setting [9]).

Take `Cc1nc(-c2ccc(C(C)(C)C)cc2)nc(C)c1C(=O)N[C@@H](CCN)C(=O)N(C)[C@@H]1C(=O)N[C@@H](C)C(=O)N[C@H](C(=O)O)Cc2cc(OCCN)c(O)c(c2)-c2cc1ccc2OCCN` (racemic) [Example 563]: the MIC is 0.75 µM (≈ 0.662 µg/mL) in assay [1] (ATCC700603, read-out: K. pneumoniae 700603 Serum MIC); 64 µM (≈ 56.5 µg/mL) in assay [2] (ATCC17978, read-out: A. baumanii 17978 Serum MIC); 0.75 µM (≈ 0.662 µg/mL) in assay [3] (ATCC25922, read-out: E. coli 25922 Serum MIC); 64 µM (≈ 56.5 µg/mL) in assay [4] (PA01, read-out: P. aeruginosa 01 Serum MIC).

With `Cc1nc(-c2ccc(C(C)(C)C)c(F)c2O)nc(N)c1C(=O)N[C@@H](CNS(N)(=O)=O)C(=O)N(C)[C@@H]1C(=O)N[C@@H](C)C(=O)N[C@H](C(=O)O)Cc2ccc(OC[C@H](O)CN)c(c2)-c2cc1cc(OC[C@H](O)CN)c2O` [Example 67, (8S,11S,14S)-18-hydroxy-11-methyl-14-[methyl-[(2S)-2-[[4-amino-2-(4-tert-butyl-3-fluoro-2-hydroxy-phenyl)-6-methyl-pyrimidine-5-carbonyl]amino]-3-(sulfamoylamino)-propanoyl]amino]-10,13-dioxo-3,17-bis[(2R)-3-amino-2-hydroxy-propoxy]-9,12-diazatricyclo-[13.3.1.12,6]icosa-1(18),2(20),3,5,15(19), 16-hexaene-8-carboxylic acid], the MIC was 1 µM (≈ 1.04 µg/mL) in assay [1] (setting [5]); 16 µM (≈ 16.7 µg/mL) in assay [2] (setting [6]); 16 µM (≈ 16.7 µg/mL) in assay [2] (setting [7]); 0.5 µM (≈ 0.521 µg/mL) in assay [3] (setting [8]); 4 µM (≈ 4.17 µg/mL) in assay [4] (setting [9]).

As for `Cc1nc(-c2ccc(OC(C)C)cc2)nc(C)c1C(=O)N[C@@H](CCN)C(=O)N(C)[C@@H]1C(=O)N[C@@H](C)C(=O)N[C@H](C(=O)O)Cc2ccc(O)c(c2)-c2cc1ccc2OCCN` (racemic) [Example 643], the minimal inhibitory concentration (MIC) in assay [1] (setting [10]) was 4.6 µM (≈ 3.79 µg/mL); in assay [2] (setting [11]), 73 µM (≈ 60.2 µg/mL); in assay [3] (setting [12]), 2.3 µM (≈ 1.9 µg/mL); in assay [4] (setting [13]) it was 73 µM (≈ 60.2 µg/mL).

For the compound `Cc1nc(-c2ccc(C(C)(C)C)cc2)cc(CN)c1C(=O)N[C@@H](CNS(N)(=O)=O)C(=O)N(C)[C@@H]1C(=O)N[C@@H](C)C(=O)N[C@H](C(=O)O)Cc2ccc(OC[C@H](O)CN)c(c2)-c2cc1cc(OC[C@H](O)CN)c2O` [Example 63, (8S,11S,14S)-3,17-bis[(2R)-3-amino-2-hydroxy-propoxy]-14-[[(2S)-2-[[4-(amino-methyl)-6-(4-tert-butylphenyl)-2-methyl-pyridine-3-carbonyl]amino]-3-(sulfamoylamino)-propanoyl]-methyl-amino]-18-hydroxy-11-methyl-10,13-dioxo-9,12-diazatri-cyclo[13.3.1.12,6]icosa-1(18),2(20),3,5,15(19), 16-hexaene-8-carboxylic acid], the MIC in assay [1] (setting [5]) came to 0.5 µM (≈ 0.511 µg/mL); in assay [2] (setting [6]), 16 µM (≈ 16.3 µg/mL); in assay [2] (setting [7]), 16 µM (≈ 16.3 µg/mL); in assay [3] (setting [8]), 1 µM (≈ 1.02 µg/mL); in assay [4] (setting [9]), 16 µM (≈ 16.3 µg/mL).

With `Cc1nc(-c2ccc(C(C)(C)C)cc2)ncc1C(=O)N[C@@H](CCN)C(=O)N(C)[C@@H]1C(=O)N[C@@H](C)C(=O)N[C@H](C(=O)O)Cc2ccc(OCCN)c(c2)-c2cc1ccc2OCCN` (racemic) [Example 640], the minimal inhibitory concentration (MIC) turned out to be 0.75 µM (≈ 0.639 µg/mL) in assay [1] (setting [10]), 64 µM (≈ 54.5 µg/mL) in assay [2] (setting [11]), 0.5 µM (≈ 0.426 µg/mL) in assay [3] (setting [12]) and 64 µM (≈ 54.5 µg/mL) in assay [4] (setting [13]).

As for `Cc1nc(-c2ccc3c(c2)CCC3(C)C)nc(C)c1C(=O)N[C@@H](CCN)C(=O)N(C)[C@@H]1C(=O)N[C@@H](C)C(=O)N[C@H](C(=O)O)Cc2ccc(OCCN)c(c2)-c2cc1ccc2OCCN` (racemic) [Example 647], the MIC in assay [1] (setting [10]) was found to be 1 µM (≈ 0.878 µg/mL); in assay [2] (setting [11]), 64 µM (≈ 56.2 µg/mL); in assay [3] (setting [12]) it was 0.5 µM (≈ 0.439 µg/mL); in assay [4] (setting [13]) it was 64 µM (≈ 56.2 µg/mL).

Consider `Cc1nc(-c2ccc(OCCC(C)(C)C)nc2)nc(N)c1C(=O)N[C@@H](CNS(N)(=O)=O)C(=O)N(C)[C@@H]1C(=O)N[C@@H](C)C(=O)N[C@H](C(=O)O)Cc2ccc(OC[C@H](O)CN)c(c2)-c2cc1cc(OC[C@H](O)CN)c2O` [Example 54, (8S,11S,14S)-14-[[(2S)-2-[[4-amino-2-[6-(3,3-dimethyl-butoxy)-3-pyridyl]-6-methyl-pyrimidine-5-carbonyl]amino]-3-(sulfamoylamino)-propanoyl]-methyl-amino]-3,17-bis[(2R)-3-amino-2-hydroxy-propoxy]-18-hydroxy-11-methyl-10,13-dioxo-9,12-diazatri-cyclo[13.3.1.12,6]icosa-1(18),2(20),3,5,15(19), 16-hexaene-8-carboxylic acid], for which the MIC turned out to be 0.5 µM (≈ 0.527 µg/mL) in assay [1] (setting [5]); 8 µM (≈ 8.43 µg/mL) in assay [2] (setting [6]); 8 µM (≈ 8.43 µg/mL) in assay [2] (setting [7]); 0.38 µM (≈ 0.4 µg/mL) in assay [3] (setting [8]); 4 µM (≈ 4.21 µg/mL) in assay [4] (setting [9]).

On to `Cc1nc(-c2ccc(C3(C)CC3)cc2)nc(N)c1C(=O)N[C@@H](CNS(N)(=O)=O)C(=O)N(C)[C@@H]1C(=O)N[C@@H](C)C(=O)N[C@H](C(=O)O)Cc2ccc(OC[C@H](O)CN)c(c2)-c2cc1cc(OC[C@H](O)CN)c2O` [Example 6, (8S,11S,14S)-18-hydroxy-11-methyl-14-[methyl-[(2S)-2-[[4-amino-6-methyl-2-[4-(1-methylcyclo-propyl)phenyl]-pyrimidine-5-carbonyl]amino]-3-(sulfamoylamino)-propanoyl]amino]-10,13-dioxo-3,17-bis[(2R)-3-amino-2-hydroxy-propoxy]-9,12-diazatricyclo-[13.3.1.12,6]icosa-1(18),2(20),3,5,15(19), 16-hexaene-8-carboxylic acid], for which the MIC was determined as 0.75 µM (≈ 0.755 µg/mL) in assay [1] (setting [5]); 16 µM (≈ 16.1 µg/mL) in assay [2] (setting [6]); 16 µM (≈ 16.1 µg/mL) in assay [2] (setting [7]); 0.75 µM (≈ 0.755 µg/mL) in assay [3] (setting [8]); 16 µM (≈ 16.1 µg/mL) in assay [4] (setting [9]).

Regarding `C[C@@H]1NC(=O)[C@@H](N(C)C(=O)[C@H](CCN)NC(=O)c2c(N)cc(-c3ccc(C(C)(C)C)cc3)nc2Cl)c2cc(OC[C@H](O)CN)c(O)c(c2)-c2cc(ccc2OC[C@H](O)CN)C[C@@H](C(=O)O)NC1=O` [Example 51, (8S,11S,14S)-18-hydroxy-11-methyl-14-[methyl-[(2S)-4-amino-2-[[4-amino-6-(4-tert-butylphenyl)-2-chloro-pyridine-3-carbonyl]amino]-butanoyl]amino]-10,13-dioxo-3,17-bis[(2R)-3-amino-2-hydroxy-propoxy]-9,12-diazatricyclo-[13.3.1.12,6]icosa-1(18),2(20),3,5,15(19), 16-hexaene-8-carboxylic acid], the MIC is 0.13 µM (≈ 0.125 µg/mL) in assay [1] (setting [5]); 8 µM (≈ 7.7 µg/mL) in assay [2] (setting [6]); 8 µM (≈ 7.7 µg/mL) in assay [2] (setting [7]); 0.19 µM (≈ 0.183 µg/mL) in assay [3] (setting [8]); 8 µM (≈ 7.7 µg/mL) in assay [4] (setting [9]).
